Source: US20120277269A1 (priority 2008, published 2012)
Read-outs that look alike come from different tables or passages of the source.

Legend:
[1] = tested on: patients with atrial fibrillation at risk of stroke
Text: Median follow-up was 2.0 years and the primary outcome was stroke or systemic embolism.
Patients were recruited from 951 clinical centers in 44 countries. In brief, patients were eligible if they had atrial fibrillation documented on electrocardiogram at screening or within 6 months; and at least one of the following: prior stroke or transient ischemic attack; left ventricular ejection fraction less than 40%; New York Heart Association heart failure symptoms of Class 2 or greater within 6 months; age at least 75 years; or age at least 65 years with diabetes mellitus, hypertension or coronary artery disease.
The time in therapeutic range was calculated by the method of Rosendaal (Rosendaal F R, et al., A method to determine the optimal intensity of oral anticoagulant therapy, Thromb Haemost, 1993, 69:236-239), excluding INRs from the first week and after discontinuations. […] Concomitant use of aspirin (less than 100 mg/day) or other antiplatelet agents was allowed.
Liver function testing was performed monthly during the first year of follow-up.
The primary study outcome was stroke or systemic embolism. The primary safety outcome was major hemorrhage. Secondary outcomes were stroke, systemic embolism and death. Other outcomes were myocardial infarction, pulmonary embolism, transient ischemic attacks, and hospitalizations. The primary net benefit-risk outcome was the composite of stroke, systemic embolism, pulmonary embolism, myocardial infarction, death or major hemorrhage. Stroke was defined as sudden onset of focal neurological deficit consistent with the territory of a major cerebral artery and categorized as ischemic, hemorrhagic or unspecified. Hemorrhagic transformation of ischemic stroke was not considered as hemorrhagic stroke. Intracranial hemorrhage included hemorrhagic stroke and sub-dural or sub-arachnoid hemorrhage. Systemic embolism was an acute vascular occlusion of an extremity or organ documented by imaging, surgery or autopsy. Major bleeding was defined as a reduction in hemoglobin level of at least […] or transfusion of at least 2 units of blood or symptomatic bleeding in a critical area or organ. Life-threatening bleeding was a subset of major bleeding that included fatal bleeding, symptomatic intracranial bleeding, bleeding with hemoglobin decrease of more than […] or requiring transfusion of more than 4 units of blood or requiring inotropic agents or necessitating surgery. All other bleeding was considered minor.
All primary and secondary outcome events were blindly and doubly adjudicated. An international team of adjudicators reviewed documents in local languages after blinding; or documents were translated by a independent group and blinded centrally. All transient ischemic attacks were reviewed to ensure that strokes had not been missed. To detect possible unreported events, symptom questionnaires were regularly administered to patients, and adverse events and hospitalization reports were scrutinized for unreported primary or secondary outcomes.
If maximum of the two p-values was greater than 0.025, the minimum of the two p-values must be less than 0.0125, one-sided, to claim statistical significance. All analyses were based on intention-to-treat.

AF patients [2] = details: SPORTIF III; Warfarin vs. Ximelagatran; mean follow-up 1.45 years; cited from earlier work
AF patients [3] = details: SPORTIF V; Warfarin vs. Ximelagatran; mean follow-up 1.66 years; cited from earlier work
AF patients [4] = details: ACTIVE W; mean follow-up 1.3 years; cited from earlier work
AF patients [5] = details: BAFTA; mean follow-up 2.7 years; cited from earlier work

SMILES: CC(=O)CC(c1ccccc1)c1c(O)c2ccccc2oc1=O (racemic) [Warfarin, 3-(α-acetonylbenzyl)-4-hydroxycoumarin]
- ALT or AST > 3xULN with concurrent bilirubin > 2xULN ([1]; Warfarin): (0.4) %
- Adverse Event: Arthralgia ([1]; Warfarin): (5.5) %
- Adverse Event: Atrial fibrillation ([1]; Warfarin): (5.4) %
- Adverse Event: Back pain ([1]; Warfarin): (5.5) %
- Adverse Event: Chest pain ([1]; Warfarin): (5.7) %
- Adverse Event: Cough ([1]; Warfarin): (5.8) %
- Adverse Event: Diarrhea ([1]; Warfarin): (5.5) %
- Adverse Event: Dizziness ([1]; Warfarin): (9.3) %
- Adverse Event: Dyspepsia ([1]; Warfarin): (1.4) %
- Adverse Event: Dyspnoea ([1]; Warfarin): (9.2) %
- Adverse Event: Fatigue ([1]; Warfarin): (5.9) %
- Adverse Event: Nasopharyngitis ([1]; Warfarin): (5.5) %
- Adverse Event: Peripheral edema ([1]; Warfarin): (7.6) %
- Adverse Event: Upper respiratory tract infection ([1]; Warfarin): (5.0) %
- Adverse Event: Urinary tract infection ([1]; Warfarin): (5.3) %
- Life threatening major bleeding, Rate ([1]; Warfarin): 1.80 /100 Person Years
- Liver Function Test Abnormalities: ALT or AST > 3xULN ([1]; Warfarin): (2.1) %
- Pulmonary embolism, Rate ([1]; Warfarin): 0.09 /100 Person Years
- Reason for discontinuation: Gastrointestinal bleeding ([1]; Warfarin): (0.9) %
- Reason for discontinuation: Gastrointestinal disorders (including pain, vomiting and diarrhea) ([1]; Warfarin): (0.8) %
- Reason for discontinuation: SAE ([1]; Warfarin): (1.6) %
- hepatobiliary disorders (AE) ([1]; Warfarin): (2.2) %
- hepatobiliary disorders (SAE) ([1]; Warfarin): (0.4) %
- Rate of primary outcome, stroke or systemic embolism ([1]; warfarin, median follow-up 2.0 years): 1.70 % per year
- Myocardial Infarction (AF patients [2]): 0.6% (warfarin)
- Myocardial Infarction (AF patients [3]): 1.4% (warfarin)
- Myocardial Infarction (AF patients [4]): 0.6% (warfarin)
- Myocardial Infarction (AF patients [5]): 1.1% (warfarin)
